Assays:
[1] = system: T cell clones with partially HLA-matched APCs (LG2, 9068, MN605); assay: T cell clone stimulation, IFN-γ ELISA; assay type: cell-based, human; settings: for dose-dependent reactivity relative to the SARS-CoV-2 peptide: 10-fold dilution series 1-10^−4 μg/mL, 24 hours
[2] = target: DQ5 (HLA-DQA1*01:01/DQB1*05:01) (Homo sapiens, UniProt P01909+P01920, A157S/A45G/A70V/C70R/D89V/E106S/E118A/E183D/E77G/F83G/G63E/H151Q/H199R/H252R/H253Q/I129T/I235V/I88M/INS77G/K197Q/L107V/L117V/L119Y/L178F/L71W/L74F/L85Q/L91A/L98M/M46L/N214S/P87R/Q116E/Q256R/Q57E/Q76K/R102G/R240Q/R75S/R78G/S102Y/S185I/S41F/S97I/T103A/T109R/T121G/T122I/T172A/T86R/V148I/V68A/V73E/Y34C/Y58G/Y62H); assay: Fluorescence polarization competition peptide binding assay, DQ5; settings: Figure 5E, described in words
[3] = system: PBMC from COVID-19, vaccinated, seronegative and pre-pandemic donors; assay: IFN-γ ELISpot, ex vivo PBMC; assay type: cell-based, human; settings: of 10 convalescent COVID-19 donors analyzed
[4] = system: in vitro expanded T cell lines; assay: IFN-γ ELISpot, T cells expanded in vitro with peptides or peptide pools; assay type: cell-based, human; settings: HCoV S pool-expanded lines from 3 convalescent COVID-19 donors; pool deconvolution; 1 μg/mL per peptide; positive by DFR2X

In the case of SALEDLLFSKVVTSGLG [NL63-146], the “dose-dependent reactivity relative to the SARS-CoV-2 peptide” value ([1]; […]) is reported as “approximately 10 fold weaker” and the “binding of homolog peptides to DQ5 relative to S811–831” value [2] is reported as “substantially weaker binding”.

With SSSRSFFEDLLFDKVKL [HKU1-151] the “dose-dependent reactivity compared with S811–826” value ([1]; clone #49, cyan group (DQ5, CoV2/HKU1)) was “similar”, the “dose-dependent reactivity relative to the SARS-CoV-2 peptide” value ([1]; clone #120, gold group (DP4, CoV2/HKU1)) was “approximately 10 fold weaker” and the “binding of homolog peptides to DQ5 relative to S811–831” value [2] was “binds more strongly than SARS-CoV-2”.

In the case of RVAGRSAIEDILFSKLV [229E-115], the “binding of homolog peptides to DQ5 relative to S811–831” value [2] is reported as “substantially weaker binding”.

“S986–1,006: SARS-CoV-2 spike candidate epitope, overlapping peptides 198/199” was tested, and the “donors showing ex vivo responses” value [3] was 1 donors and the “donors recognizing the pair of overlapping peptides” value [4] was “single”.
